Experimental data as given in patent US6353004B1, “Peripherally acting anti-pruritic opiates” (Adolor Coporation, priority 1997, dated 2002).

Assays:
[1] = test system: Compound 48/80-induced scratching; test: mouse scratch model: antagonism of Compound 48/80-induced scratching; format: in vivo, male Swiss albino mice; settings: s.c.; for Mean % Inhibition of Scratching: Compound 48/80 challenge, scratching counted for 30 min; for antagonism of Compound 48/80-induced scratching (in words): mice
Method: Testing was performed in a mouse scratch model under blind conditions.
Groups of 8-10 male Swiss albino mice (Hilltop Lab Animals, Inc., Scottsdale, Pa.), weighing […], were used in the testing. They were housed under controlled temperature of 23-25° C. Food and water were freely available. Before the experiments, the mice were weighed, put into individual boxes and allowed to acclimate for 30 min.
Vehicle used to dissolve the test compounds: 20% w/w cremophor EL.
100 μl of the vehicle (3-5 doses, n=8-10) was injected s.c. into the back of the neck of mice 20 min. before challenging them with 100 μl of Compound 48/80 (2 mg/ml; […]) injected s.c. into the back of the neck.
To each mouse of a group of 8-10 mice previously subjected to the standard challenge various doses of the compounds, to be tested for anti-pruritic activity, were administered s.c. into the back of the neck.
For each group of 8-10 mice, the mean values for scratching were normalized to relative % antagonism of scratching and then plotted vs. dose of test compounds. Interval estimates of mean A50 were determined by nonlinear regression analysis (Kaleida Graph) and mean % inhibition of scratching was calculated.

[2] = i.v. administration; cited from earlier work

Which “Mean % Inhibition of Scratching” value ([1]; dose 1.0 mg/kg) does the source give for `OC1(Cc2ccc(Cl)cc2)CCN(CCC(c2ccccc2)(c2ccccc2)c2ccccc2)CC1` [(2), 1-(3,3,3-triphenylpropyl)-4-hydroxy-4-p-chlorobenzylpiperidine] here?
Its value is 35%.

What about the “Mean % Inhibition of Scratching” value ([1]; dose 2.5 mg/kg) of the same compound?
The value was 68%.

What about the “Mean % Inhibition of Scratching” value ([1]; dose 5.0 mg/kg) of the same compound?
Its value is 94%.

What about the “antagonism of Compound 48/80-induced scratching (in words)” value (from here on “antagonism”) [1] of the same compound?
Its value is “antagonized Compound 48/80-induced scratching in a dose-related manner”.

For `Cl.O=C(O)C1(c2ccccc2)CCN(CCC(c2ccccc2)(c2ccccc2)c2ccccn2)CC1` [(1), 1-[3,3-diphenyl-3-(2-pyridyl)propyl]-4-phenyl-4-piperidinecarboxylic acid hydrochloride], which “Mean % Inhibition of Scratching” value ([1]; dose 2.5 mg/kg) is on record?
Its value is 32%.

What about the “Mean % Inhibition of Scratching” value ([1]; dose 5.0 mg/kg) of the same compound?
The value was 65%.

And the “Mean % Inhibition of Scratching” value ([1]; dose 10.0 mg/kg)?
The value was 83%.

What about the “antagonism” value [1] of the same compound?
Its value is “antagonized Compound 48/80-induced scratching in a dose-related manner”.

Which “generalized itching, share of patients” value [2] does the source give for `CN1CC[C@]23c4c5ccc(O)c4O[C@H]2[C@@H](O)C=C[C@H]3[C@H]1C5` [morphine] here?
The value was “about 1%”.

Which “antagonism” value [1] does the source give for `CN(C)C(=O)C(CCN1CCC(O)(c2ccc(Cl)cc2)CC1)(c1ccccc1)c1ccccc1.Cl` [(3), reference compound] here?
Its value is “antagonized Compound 48/80-induced scratching in a dose-related manner”.
